Data as given in the NIST ThermoML archive (doi:10.1021/je200195q).
Numbers after ± are expanded uncertainties.

Assay: activity coefficient (dimensionless); of the first substance listed, at infinite dilution; xn = mol fraction of the nth substance listed
Settings: 101 kPa, Liquid, Chromatography, x1 = 0

| SMILES | activity coefficient (312.8 K) | activity coefficient (332.85 K) | activity coefficient (354.65 K) | activity coefficient (322.55 K) | activity coefficient (342.75 K) | activity coefficient (362.65 K) | also measured |
| --- | --- | --- | --- | --- | --- | --- | --- |
| C1CCCCC1 [cyclohexane] + CCCCCC[n+]1ccn(C)c1.FC(F)(F)C(F)(F)[P-](F)(F)(F)(C(F)(F)C(F)(F)F)C(F)(F)C(F)(F)F | 4.78 ± 0.33 | 4.17 ± 0.28 | 3.62 ± 0.25 |  |  |  |  |
| C#CCCCC [1-hexyne] + CCCCCCCCCCn1cc[n+](CCCCCCCCCC)c1C.O=S(=O)([N-]S(=O)(=O)C(F)(F)F)C(F)(F)F |  |  |  |  |  |  | activity coefficient (323.1 K): 0.925 ± 0.058; activity coefficient (333.15 K): 0.917 ± 0.058; activity coefficient (343.15 K): 0.899 ± 0.057 |
| CCO [ethanol] + CCCCCC[n+]1ccn(C)c1.FC(F)(F)C(F)(F)[P-](F)(F)(F)(C(F)(F)C(F)(F)F)C(F)(F)C(F)(F)F | 2.1 ± 0.14 | 1.69 ± 0.11 | 1.31 ± 0.085 |  |  |  |  |
| C[N+](=O)[O-] [nitromethane] + CCCCCC[n+]1ccn(C)c1.FC(F)(F)C(F)(F)[P-](F)(F)(F)(C(F)(F)C(F)(F)F)C(F)(F)C(F)(F)F | 0.452 ± 0.036 | 0.438 ± 0.035 | 0.41 ± 0.034 |  |  |  |  |
| CCCC(C)=O [pentan-2-one] + CCCCn1cc[n+](C)c1.O=S(=O)([N-]S(=O)(=O)C(F)(F)C(F)(F)F)C(F)(F)C(F)(F)F |  |  |  | 0.666 ± 0.045 | 0.686 ± 0.046 | 0.701 ± 0.047 |  |
| CCC(C)CC [3-methylpentane] + CCn1cc[n+](C)c1.CS(=O)(=O)[O-] |  |  |  |  |  |  | activity coefficient (312.55 K): 157 ± 11; activity coefficient (322.45 K): 135 ± 9.3; activity coefficient (332.45 K): 115 ± 7.9 |
| CCCCCCCCCCC [undecane] + CCCCn1cc[n+](C)c1.O=S(=O)([N-]S(=O)(=O)C(F)(F)C(F)(F)F)C(F)(F)C(F)(F)F |  |  |  | 57.3 ± 3.9 | 45.9 ± 3.1 | 37.8 ± 2.6 |  |
| CCCCCCCC [octane] + CCCCCCCCCCn1cc[n+](CCCCCCCCCC)c1C.O=S(=O)([N-]S(=O)(=O)C(F)(F)F)C(F)(F)F |  |  |  |  |  |  | activity coefficient (323.1 K): 2.54 ± 0.17; activity coefficient (333.15 K): 2.48 ± 0.17; activity coefficient (343.15 K): 2.45 ± 0.17 |
| CCCCCCC [heptane] + CCCCCCCCCCn1cc[n+](CCCCCCCCCC)c1C.O=S(=O)([N-]S(=O)(=O)C(F)(F)F)C(F)(F)F |  |  |  |  |  |  | activity coefficient (323.1 K): 2.53 ± 0.17; activity coefficient (333.15 K): 2.11 ± 0.14; activity coefficient (343.15 K): 2.08 ± 0.14 |
| CO [methanol] + CCCCCCCCCCn1cc[n+](CCCCCCCCCC)c1C.O=S(=O)([N-]S(=O)(=O)C(F)(F)F)C(F)(F)F |  |  |  |  |  |  | activity coefficient (323.1 K): 0.963 ± 0.061; activity coefficient (333.15 K): 0.857 ± 0.055; activity coefficient (343.15 K): 0.755 ± 0.05 |
| ClC(Cl)(Cl)Cl [tetrachloromethane] + CCCCn1cc[n+](C)c1.O=S(=O)([N-]S(=O)(=O)C(F)(F)C(F)(F)F)C(F)(F)C(F)(F)F |  |  |  | 2.4 ± 0.16 | 2.35 ± 0.16 | 2.33 ± 0.16 |  |
| CCCCCCCC [octane] + CCCCCC[n+]1ccn(C)c1.FC(F)(F)C(F)(F)[P-](F)(F)(F)(C(F)(F)C(F)(F)F)C(F)(F)C(F)(F)F | 12.2 ± 0.83 | 10.5 ± 0.72 | 8.87 ± 0.6 |  |  |  |  |
| ClC(Cl)Cl [trichloromethane] + CCCCCC[n+]1ccn(C)c1.FC(F)(F)C(F)(F)[P-](F)(F)(F)(C(F)(F)C(F)(F)F)C(F)(F)C(F)(F)F | 1.09 ± 0.069 | 1.09 ± 0.069 | 1.05 ± 0.066 |  |  |  |  |
| OCC(F)(F)F [2,2,2-trifluoroethanol] + CCCCCC[n+]1ccn(C)c1.FC(F)(F)C(F)(F)[P-](F)(F)(F)(C(F)(F)C(F)(F)F)C(F)(F)C(F)(F)F | 0.987 ± 0.062 | 0.891 ± 0.057 | 0.728 ± 0.048 |  |  |  |  |
| CCc1ccccc1 [ethylbenzene] + CCCCn1cc[n+](C)c1.O=S(=O)([N-]S(=O)(=O)C(F)(F)C(F)(F)F)C(F)(F)C(F)(F)F |  |  |  | 2.04 ± 0.14 | 2.05 ± 0.14 | 2.06 ± 0.14 |  |
| CCCCO [butan-1-ol] + CCCCn1cc[n+](C)c1.O=S(=O)([N-]S(=O)(=O)C(F)(F)C(F)(F)F)C(F)(F)C(F)(F)F |  |  |  | 2.49 ± 0.17 | 2 ± 0.14 | 1.7 ± 0.11 |  |
| c1ccccc1 [benzene] + CCCCn1cc[n+](C)c1.O=S(=O)([N-]S(=O)(=O)C(F)(F)C(F)(F)F)C(F)(F)C(F)(F)F |  |  |  | 1.01 ± 0.063 | 1.02 ± 0.064 | 1.03 ± 0.065 |  |
| CCCCCCCC [octane] + CCCCn1cc[n+](C)c1.O=S(=O)([N-]S(=O)(=O)C(F)(F)C(F)(F)F)C(F)(F)C(F)(F)F |  |  |  | 20.4 ± 1.4 | 17.3 ± 1.2 | 15.5 ± 1.1 |  |
| Cc1ccccc1C [1,2-dimethylbenzene] + CCCCCC[n+]1ccn(C)c1.FC(F)(F)C(F)(F)[P-](F)(F)(F)(C(F)(F)C(F)(F)F)C(F)(F)C(F)(F)F | 0.888 ± 0.057 | 0.947 ± 0.06 | 0.957 ± 0.06 |  |  |  |  |
| CC(C)OC(C)C [diisopropyl ether] + CCn1cc[n+](C)c1.CS(=O)(=O)[O-] |  |  |  |  |  |  | activity coefficient (312.55 K): 84.5 ± 5.8; activity coefficient (322.45 K): 74.2 ± 5.1; activity coefficient (332.45 K): 67.7 ± 4.6 |
| ClCCl [dichloromethane] + CCCCCCCCCCn1cc[n+](CCCCCCCCCC)c1C.O=S(=O)([N-]S(=O)(=O)C(F)(F)F)C(F)(F)F |  |  |  |  |  |  | activity coefficient (323.1 K): 0.33 ± 0.032; activity coefficient (333.15 K): 0.341 ± 0.032; activity coefficient (343.15 K): 0.351 ± 0.032 |
